Reference: patent publication US4328202A, “Ionic 5-C-substituted 2,4,6-triiodoisophthalic acid derivatives” (Schering, A.G., priority 1980, dated 1982)

What was measured:
Rat [1] = assay: General compatibility after intravenous injection in rats (7 days observation); type: in vivo; details: intravenously, meglumine salt in water, probit analysis
Method: (§1) Table I presents a comparison of the conventional contrast media iothalamic acid (E) and diatrizoic acid (F) with 5-Carbamoyl-3-N-methylcarbamoyl-2,4,6-triiodobenzoic acid (D) of this invention, in terms of neural compatibility after intracerebral or intracisternal administration, as well as their general compatibility.
(§2) The compounds are administered, as meglumine salts dissolved in water, to 10 rats each in varying doses. After intracerebral and intracisternal injection, the animals are observed for 24 hours; the ED50 is denoted as the dose causing toxic effects (strong behavioral anomalies and disturbances in motor coordination, convulsions, or death) in 50% of the animals. After intravenous injection, the observation time was 7 days. ED50 and LD50 were calculated by probit analysis.

Iodine content of acid = type: physicochemical; details: of the free acid
Rat [2] = assay: Neural compatibility after intracisternal injection in rats (24 h observation; ED50 = toxic effects in 50% of the animals); type: in vivo; details: intracisternally, meglumine salt in water, probit analysis
Method: as §1, §2

Rat [3] = assay: Neural compatibility after intracerebral injection in rats (24 h observation; ED50 = toxic effects in 50% of the animals); type: in vivo; details: intracerebrally, meglumine salt in water, probit analysis
Method: as §1, §2

## CNC(=O)c1c(I)c(C(N)=O)c(I)c(C(=O)O)c1I [D, 5-Carbamoyl-3-N-methylcarbamoyl-2,4,6-triiodobenzoic acid]
Rat [1]
  LD50: 8.7 g I/kg
Iodine content of acid
  Iodine content of acid: 63.5%
Rat [2]
  ED50 (strong behavioral anomalies, disturbances in motor coordination, convulsions, or death): 13.2 mg I/kg
  LD50: 65 mg I/kg
Rat [3]
  ED50 (strong behavioral anomalies, disturbances in motor coordination, convulsions, or death): 42 mg I/kg
  LD50: 66 mg I/kg

## CC(=O)Nc1c(I)c(NC(C)=O)c(I)c(C(=O)O)c1I [F, diatrizoic acid]
Rat [1]
  LD50: 7.3 g I/kg
Iodine content of acid
  Iodine content of acid: 62.1%
Rat [2]
  ED50 (strong behavioral anomalies, disturbances in motor coordination, convulsions, or death): 3.0 mg I/kg
Rat [3]
  ED50 (strong behavioral anomalies, disturbances in motor coordination, convulsions, or death): 12 mg I/kg

## CNC(=O)c1c(I)c(NC(C)=O)c(I)c(C(=O)O)c1I [E, iothalamic acid]
Rat [1]
  LD50: 7.4 g I/kg
Iodine content of acid
  Iodine content of acid: 62.1%
Rat [2]
  ED50 (strong behavioral anomalies, disturbances in motor coordination, convulsions, or death): 10.6 mg I/kg
  LD50: 58 mg I/kg
Rat [3]
  ED50 (strong behavioral anomalies, disturbances in motor coordination, convulsions, or death): 36 mg I/kg
  LD50: 52 mg I/kg
